Experimental data as given in PMC8401404 (Molecules, 2021).
≈ marks a conversion by molar mass, not a printed value. Where a name gives a salt, the structure may show the parent alone. Read-outs that look alike come from different tables or passages of the source. One block for each compound: values may come before it.

Legend:
HCC827 [1] = test: Cytotoxicity (viability) assay, 3D hanging drop cell culture; conditions: Homo sapiens, HCC827, 72 h, read-out: Cytotoxicity Assay IC50 ± SD; HCC827 3D
Experimental: (§1) MTS assay gives us information about the number of living cells, in this case, metabolically active cells, whereas the BrdU proliferation assay gives a measure of the cell population in active division phase. Both assays were performed in 2D and 3D assay formats. For the 2D cell assay format, we used classic two-dimensional in vitro assays and as a 3D assay we used a hanging drop proliferation cell assay as previously described. We explored the activity of compounds on three human lung cancer cell lines, A549, HCC827 and NCI-H358. The compound activity was also tested on human lung fibroblast cell line MRC-5. A two-dimensional in vitro viability assay was performed on the MRC-5 cell line to see if tested compounds are cytotoxic on normal cell lines in low concentrations. […] 7.1.
(§2) Test compounds were synthesized by a research group at the Department of Organic Chemistry, Faculty of Chemical Engineering and Technology, University of Zagreb. […] Compounds were diluted 1:3. We transferred 500 nL (for 2D cell culture) or 400 nL (for 3D cell culture) of the compound from a mother plate to test plate by using Mosquito (TTP labtech). DMSO percentage in test concentrations was 0.5–1.0%. Starting concentration of the test compounds and standard compound doxorubicin was 50 µM (2D cell culture) or 100 µM (3D cell culture).
(§3) Cells were grown in 96-well Perfecta 3D hanging drop plates 5000 cell/well for 4 days until spheres were formed (and checked under the microscope). After sphere formation cells were treated with compounds followed by 72 h incubation. Cell viability assay was performed according to the manufacturer’s instructions, using CellTiter GLO 3D for 3D cell culture (Promega); cell incubation was 5 min on the shaker followed by 25 min incubation in the dark. Plates were read using PE EnVision luminescence.
(§4) Calculation of IC50 data, curves and QC analysis was performed by using Excel tools and GraphPadPrism software (La Jolla, CA, USA), v. […] QC criteria parameters (Z’, S:B, R2, HillSlope) were checked for every IC50 curve.

NCI-H358 [2] = test: as above; conditions: Homo sapiens, NCI-H358, 72 h, read-out: Cytotoxicity Assay IC50 ± SD; NCI-H358 3D
Experimental: as §1, §2, §3, §4

A549 [3] = test: as above; conditions: Homo sapiens, A549, 72 h, read-out: Cytotoxicity Assay IC50 ± SD; A549 3D
Experimental: as §1, §2, §3, §4

in vitro = conditions: human
Experimental: as §1, §2
(§5) Cells were grown in 96-well cell star polystyrene plates. We seeded 10,000 cells/well in wells 4 h prior to the treatment with different compounds concentrations and incubated for 72 h. A cell viability assay was performed according to the manufacturer’s instructions, using CellTiter 96 aqueous solution, MTS kit (Promega, Madison, WI, USA). After 0.5–2 h of cell incubation with MTS in 2D cell culture, the plates were read using PE EnVision absorbance at 490 nm.
as §4

HCC827 [4] = test: BrdU proliferation assay, 2D cell culture; format: cell-based, human; conditions: Homo sapiens
Experimental: as §1, §2, §5
(§6) Proliferation assay was performed using Cell Proliferation ELISA, BrdU (Sigma, St. Louis, MO, USA). Briefly, 48 h hours after compound addition, 10 µM of BrdU was added to each well and incubated for the following 24 h. After incubation, a single cell suspension was made for 3D cell culture in the new 96-well plate. Plates were centrifuged and supernatants were removed from each plate (for 2D and 3D cell culture) followed by 60 min incubation at 60 °C. The rest of the proliferation assay was performed according to the manufacturer’s instructions.
as §4

NCI-H358 [5] = test: BrdU proliferation assay, 2D cell culture; format: cell-based, human; conditions: Homo sapiens, NCI-H358, 2D, n = 2, read-out: Proliferation Assay IC50 ± SD
Experimental: as §1, §2, §5, §6, §4

A549 [6] = test: BrdU proliferation assay, 2D cell culture; format: cell-based, human; conditions: Homo sapiens
Experimental: as §1, §2, §5, §6, §4

HCC827 [7] = test: BrdU proliferation assay, 3D hanging drop cell culture; format: cell-based, human; conditions: Homo sapiens
Experimental: as §1, §2, §3, §6, §4

NCI-H358 [8] = test: as above; format: cell-based, human; conditions: Homo sapiens, NCI-H358, 3D, n = 2, read-out: Proliferation Assay IC50 ± SD
Experimental: as §1, §2, §3, §6, §4

A549 [9] = test: as above; format: cell-based, human; conditions: Homo sapiens
Experimental: as §1, §2, §3, §6, §4

HCC827 [10] = test: MTS cytotoxicity assay, 2D cell culture; conditions: Homo sapiens, HCC827, 72 h, read-out: Cytotoxicity Assay IC50 ± SD; HCC827 2D
Experimental: as §1, §2, §5, §4

NCI-H358 [11] = test: MTS cytotoxicity assay, 2D cell culture; conditions: Homo sapiens, NCI-H358, 72 h, read-out: Cytotoxicity Assay IC50 ± SD; NCI-H358 2D
Experimental: as §1, §2, §5, §4

A549 [12] = test: MTS cytotoxicity assay, 2D cell culture; conditions: Homo sapiens, A549, 72 h, read-out: Cytotoxicity Assay IC50 ± SD, A549 2D
Experimental: as §1, §2, §5, §4

S. aureus ATCC 29213 = test: Broth microdilution testing (CLSI); format: cell-based, Staphylococcus aureus; conditions: Staphylococcus aureus
Experimental: (§7) Broth microdilution testing was performed according to CLSI (Clinical Laboratory Standards Institute) guidelines. MIC (minimal inhibitory concentration) value was defined as the last tested concentration of compound at which there is no visible growth of bacteria. […] Clinical and Laboratory Standards Institute (CLSI) guidelines.

E. coli ATCC 25922 = test: Broth microdilution testing (CLSI); format: cell-based, Escherichia coli; conditions: Escherichia coli
Experimental: as §7

S. cerevisiae ATCC 7752 = test: Broth microdilution testing (CLSI); format: cell-based, Saccharomyces cerevisiae; conditions: Saccharomyces cerevisiae
Experimental: as §7

[13] = HCC827, 2D, BrdU, n = 2, read-out: Proliferation Assay IC50 ± SD
[14] = A549, 2D, BrdU, n = 2, read-out: Proliferation Assay IC50 ± SD
[15] = HCC827, 3D, BrdU, n = 2, read-out: Proliferation Assay IC50 ± SD
[16] = A549, 3D, BrdU, n = 2, read-out: Proliferation Assay IC50 ± SD
[17] = ATCC29213, broth microdilution, 16–24h at 37 °C, read-out: MIC S. aureus ATCC 29213
[18] = ATCC25922, broth microdilution, 16–24h at 37 °C, read-out: MIC E. coli ATCC 25922
[19] = ATCC7752, broth microdilution, 16–24h at 37 °C, read-out: MIC S. cerevisiae ATCC 7752

Structure (SMILES): COc1cccc2c1C(=O)c1c(O)c3c(c(O)c1C2=O)C[C@@](O)(C(=O)CO)C[C@@H]3O[C@H]1C[C@H](N)[C@H](O)[C@H](C)O1 [Doxorubicin, reference compound]
IC50 (HCC827 [1]): 1.47 ± 0.12 µM
IC50 (NCI-H358 [2]): 0.99 ± 0.15 µM
IC50 (A549 [3]): 5.86 ± 1.1 µM
IC50 at 72 h (in vitro): 0.6 ± 0.01 µM
IC50 (HCC827 [4]; [13]): 0.25 ± 0.28 µM
IC50 (NCI-H358 [5]): 0.07 ± 0.04 µM
IC50 (A549 [6]; [14]): 0.13 ± 0.01 µM
IC50 (HCC827 [7]; [15]): 1.89 ± 2.3 µM
IC50 (NCI-H358 [8]): 2.3 ± 1.91 µM
IC50 (A549 [9]; [16]): 0.48 ± 0.03 µM
IC50 (HCC827 [10]): 0.32 ± 0.03 µM
IC50 (NCI-H358 [11]): 0.15 ± 0.06 µM
IC50 (A549 [12]; 72 h, MTS, n = 2): 1.31 ± 0.11 µM

Structure (SMILES): CC(C)NC(=N)c1ccc2nc(-c3ccc(-c4ccc([N+](=O)[O-])cc4)o3)sc2c1 (as salt: hydrochloride) [Compound 5, 2-[5-(4-Nitrophenyl)furan-2-yl]-6-N-isopropilamidinobenzothiazole hydrochloride]
melting point: 201 to 206 °C

Structure (SMILES): N#C/C(=C\c1ccc(-c2ccc(Cl)cc2)o1)c1nc2ccccc2s1 [Compound 22, (E)-2-(Benzothiazol-2-yl)-3-[5-(4-chlorophenyl)furan-2-yl]acrylonitrile]
IC50 (HCC827 [1]): > 100 µM
IC50 (NCI-H358 [2]): > 100 µM
IC50 (A549 [3]): > 100 µM
MIC (S. aureus ATCC 29213; ATCC29213, read-out: MIC S. aureus ATCC 29213): > 100 µM
IC50 at 72 h (in vitro): > 50 µM
MIC (E. coli ATCC 25922; ATCC25922, read-out: MIC E. coli ATCC 25922): > 100 µM
IC50 (HCC827 [4]; HCC827, read-out: Proliferation Assay IC50 ± SD, HCC827 2D): > 50 µM
IC50 (NCI-H358 [5]): > 50 µM
IC50 (A549 [6]; A549, read-out: Proliferation Assay IC50 ± SD, A549 2D): > 50 µM
IC50 (HCC827 [7]; HCC827, read-out: Proliferation Assay IC50 ± SD, HCC827 3D): > 100 µM
IC50 (NCI-H358 [8]): > 100 µM
IC50 (A549 [9]; A549, read-out: Proliferation Assay IC50 ± SD, A549 3D): > 100 µM
IC50 (HCC827 [10]): > 50 µM
IC50 (NCI-H358 [11]): > 50 µM
IC50 (A549 [12]): > 50 µM
MIC (S. cerevisiae ATCC 7752; ATCC7752, read-out: MIC S. cerevisiae ATCC 7752): > 100 µM

Structure (SMILES): CC1(C)S[C@@H]2[C@H](NC(=O)[C@H](N)c3ccccc3)C(=O)N2[C@H]1C(=O)O [Ampicillin, reference compound]
MIC (S. aureus ATCC 29213; [17]): 2 µM (≈ 0.699 µg/mL)
MIC (E. coli ATCC 25922; [18]): 4 µM (≈ 1.4 µg/mL)
MIC (S. cerevisiae ATCC 7752; [19]): > 64 µM

Second part, led by results:

melting point: > 270 °C
Structure (SMILES): CC(C)NC(=N)c1ccc2[nH]c(-c3ccc(-c4ccc([N+](=O)[O-])cc4)o3)nc2c1 (as salt: hydrochloride) [Compound 11, 2-[5-(4-Nitrophenyl)furan-2-yl]-5(6)-N-isopropilamidinobenzimidazole hydrochloride]

MIC (S. aureus ATCC 29213; [17]): > 100 µM
MIC (E. coli ATCC 25922; [18]): > 100 µM
IC50 (HCC827 [4]; [13]): > 50 µM
IC50 (NCI-H358 [5]): > 50 µM
IC50 (A549 [6]; [14]): > 50 µM
IC50 (HCC827 [7]; [15]): > 100 µM
IC50 (NCI-H358 [8]): > 100 µM
IC50 (A549 [9]; [16]): > 100 µM
melting point: 242 to 246 °C
MIC (S. cerevisiae ATCC 7752; [19]): > 100 µM
Structure (SMILES): N#Cc1ccc2[nH]c(-c3ccc(-c4ccc([N+](=O)[O-])cc4)o3)nc2c1 [Compound 10, 5(6)-Cyano-2-[5-(4-nitrophenyl)furan-2-yl]benzimidazole]
IC50 (HCC827 [1]): > 100 µM
IC50 (NCI-H358 [2]): > 100 µM
IC50 (A549 [3]): > 100 µM
IC50 at 72 h (in vitro; MRC-5 normal lung fibroblasts, 2D culture): > 50 µM
IC50 (HCC827 [10]): > 50 µM
IC50 (NCI-H358 [11]): > 50 µM
IC50 (A549 [12]; 72 h, MTS, n = 2): > 50 µM

melting point: > 270 °C
Structure (SMILES): O=[N+]([O-])c1ccc(-c2ccc(-c3nc4cc(C5=NCCN5)ccc4[nH]3)o2)cc1 (as salt: hydrochloride) [Compound 12, 5(6)-(4,5-Dihydro-1H-imidazol-2-yl)-2-[5-(4-nitrophenyl)furan-2-yl]benzimidazole hydrochloride]
